Like-named read-outs stand apart in the source and are kept apart here.
Experiments:
A. baumannii ATCC 19606 = assay: Antibacterial MIC, double-dilution method; assay type: cell-based; details: Acinetobacter baumannii, ATCC19606, strain E, Gram-negative, read-out: MIC
Method in brief: (§1)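 Compounds were first screened at 500 μM each, then MICs were read by serial twofold dilution of the compound against the bacterial strain.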

B. subtilis 168 = assay: Antibacterial MIC, double-dilution method; assay type: cell-based; details: Bacillus subtilis, strain A, Gram-positive
Method in brief: as §1

E. cloacae ATCC 13047 = assay: Antibacterial MIC, double-dilution method; assay type: cell-based; details: Enterobacter cloacae, ATCC13047, strain F, Gram-negative, read-out: MIC
Method in brief: as §1

E. coli MC1061 = assay: Antibacterial MIC, double-dilution method; assay type: cell-based; details: Escherichia coli, strain G, Gram-negative, read-out: MIC
Method in brief: as §1

K. pneumoniae ATCC 27736 = assay: Antibacterial MIC, double-dilution method; assay type: cell-based; details: Klebsiella pneumoniae, ATCC27736, strain H, Gram-negative, read-out: MIC
Method in brief: as §1

[1] = system: L. monocytogenes ATCC 19115; assay: Antibacterial MIC, double-dilution method; assay type: cell-based; details: Listeria monocytogenes, ATCC19115, strain B, Gram-positive, read-out: MIC
Method in brief: as §1

M. smegmatis MC2-155 = assay: Antibacterial MIC, double-dilution method; assay type: cell-based; details: Mycolicibacterium smegmatis, MC2155, strain K, mycobacterial, read-out: MIC
Method in brief: as §1

MRSA = assay: Antibacterial MIC, double-dilution method; assay type: cell-based; details: Staphylococcus aureus, strain C, Gram-positive, converted from μM, read-out: MIC
Method in brief: as §1

P. aeruginosa ATCC 27853 = assay: Antibacterial MIC, double-dilution method; assay type: cell-based; details: Pseudomonas aeruginosa, ATCC27853, strain I, Gram-negative, read-out: MIC
Method in brief: as §1

S. enterica ATCC 14028 = assay: Antibacterial MIC, double-dilution method; assay type: cell-based; details: Salmonella enterica, ATCC14028, strain J, Gram-negative, read-out: MIC
Method in brief: as §1

VRE = assay: Antibacterial MIC, double-dilution method; assay type: cell-based; details: Enterococcus, strain D, Gram-positive, converted from μM, read-out: MIC
Method in brief: as §1

C. albicans ATCC 1003 = assay: Antifungal MIC, CLSI M27-A3 microbroth dilution; assay type: cell-based, Candida albicans; details: Candida albicans, ATCC1003; C. albicans ATCC 1003; converted from μg/mL; read-out: MIC
Method: (§2) In vitro MIC testing was performed according to the CLSI M27-A3 standard microbroth dilution methodology for the susceptibility testing of yeasts with minor modifications.

C. albicans ATCC 10231 = assay: Antifungal MIC, CLSI M27-A3 microbroth dilution; assay type: cell-based, Candida albicans; details: Candida albicans, ATCC10231; C. albicans ATCC 10231, resistant to FLC, ITC, and VOR; converted from μg/mL; read-out: MIC
Method: as §2

C. albicans ATCC 1237 = assay: Antifungal MIC, CLSI M27-A3 microbroth dilution; assay type: cell-based, Candida albicans; details: Candida albicans, ATCC1237, C. albicans ATCC 1237, resistant to FLC, ITC, and VOR, read-out: MIC
Method: as §2

C. albicans ATCC 2310 = assay: Antifungal MIC, CLSI M27-A3 microbroth dilution; assay type: cell-based, Candida albicans; details: Candida albicans, ATCC2310; C. albicans ATCC 2310, susceptible to FLC, ITC, and VOR; converted from μg/mL; read-out: MIC
Method: as §2

C. albicans ATCC 2876 = assay: Antifungal MIC, CLSI M27-A3 microbroth dilution; assay type: cell-based, Candida albicans; details: Candida albicans, ATCC2876; C. albicans ATCC 2876, susceptible to FLC, ITC, and VOR; converted from μg/mL; read-out: MIC
Method: as §2

C. albicans ATCC 64124 = assay: Antifungal MIC, CLSI M27-A3 microbroth dilution; assay type: cell-based, Candida albicans; details: Candida albicans, ATCC64124, C. albicans ATCC 64124, resistant to FLC, ITC, and VOR, read-out: MIC
Method: as §2

C. albicans ATCC 90819 = assay: Antifungal MIC, CLSI M27-A3 microbroth dilution; assay type: cell-based, Candida albicans; details: Candida albicans, ATCC90819; C. albicans ATCC 90819, resistant to FLC, ITC, and VOR; converted from μg/mL; read-out: MIC
Method: as §2

Cl.N=C(N)N/N=C/c1ccc(-c2ccc(C=NNc3ccccc3Cl)cc2)cc1 (mixture of isomers) [Compound 7Aa, E)-2-((4′-((E and Z)-(2-(2-Chlorophenyl)hydrazono)methyl)-[1,1′-biphenyl]-4-yl)methylene)hydrazine-1-carboximidamide monohydrochloride]
MIC (A. baumannii ATCC 19606; converted from μM): > 215 µg/mL
MIC (A. baumannii ATCC 19606; range 0.5 to 500 μM): > 500 µM
MIC (B. subtilis 168; converted from μM): > 215 µg/mL
MIC (B. subtilis 168; range 0.5 to 500 μM): > 500 µM
MIC (E. cloacae ATCC 13047; converted from μM): > 215 µg/mL
MIC (E. cloacae ATCC 13047; range 0.5 to 500 μM): > 500 µM
MIC (E. coli MC1061; converted from μM): > 215 µg/mL
MIC (E. coli MC1061; range 0.5 to 500 μM): > 500 µM
MIC (K. pneumoniae ATCC 27736; converted from μM): > 215 µg/mL
MIC (K. pneumoniae ATCC 27736; range 0.5 to 500 μM): > 500 µM
MIC ([1]; converted from μM): 0.4 to 0.9 µg/mL
MIC ([1]; range 0.5 to 500 μM): 1 to 2 µM
MIC (M. smegmatis MC2-155; converted from μM): 1.7 µg/mL
MIC (M. smegmatis MC2-155; range 0.5 to 500 μM): 3.9 µM
MIC (MRSA): 0.9 µg/mL
MIC (P. aeruginosa ATCC 27853; converted from μM): > 215 µg/mL
MIC (P. aeruginosa ATCC 27853; range 0.5 to 500 μM): > 500 µM
MIC (S. enterica ATCC 14028; converted from μM): > 215 µg/mL
MIC (S. enterica ATCC 14028; range 0.5 to 500 μM): > 500 µM
MIC (VRE): 0.9 µg/mL
MIC (C. albicans ATCC 1003): 4.6 µM
MIC (C. albicans ATCC 10231): 4.6 µM
MIC (C. albicans ATCC 1237; converted from μg/mL): 9.2 µM
MIC (C. albicans ATCC 1237): 3.9 µg/mL
MIC (C. albicans ATCC 2310): 4.6 µM
MIC (C. albicans ATCC 2876): 4.6 µM
MIC (C. albicans ATCC 64124; converted from μg/mL): 9.2 µM
MIC (C. albicans ATCC 64124): 3.9 µg/mL
MIC (C. albicans ATCC 90819): 4.6 µM

Reference: patent publication US10173968B2, “Bishydrazone-based antifungal agents” (University of Kentucky Research Foundation, priority 2016, dated 2019)
